Where two headings read alike, the source gives them in different places.
What was measured:
[1] = system: M. para. isolated from resected tissue of CD patients; assay: in vitro test of seven antituberculosis drugs against M. para. using the Bactec system; type: cell-based, Mycobacterium paratuberculosis; conditions: for MIC50 (50% M. para. cells inhibited or killed) / MIC99.9 (99.9% M. para. cells inhibited or killed): M. para. from resected tissue of CD patients
[2] = system: MAP-positive and MAP-negative Crohn's disease patients (ELISA); assay: comparison of age-matched MAP-positive and MAP-negative patients at 1 year (CDAI); type: in vivo, human
Excerpt: Another study was undertaken to compare age-matched MAP-positive and -negative patients utilizing ELISA analysis forserum antibodies to MAP. 10 MAP-positive and 10 MAP-negative patients were compared at 1 year, utilizing the CDAI score as a primary endpoint. The elimination of corticosteroids and the need for immunotherapy were considered secondary endpoints. […] Steroids were eliminated in 8 of 10 patients, with 2 patients requiring low-dose steroids. In the MAP-negative group at 1 year, 6 of 10 patients were in complete remission, with an entry CDAI score of 308 and an exit score of 179. Of the responsive patients, 3 of 6 required additional immunotherapy, and 3 remained on antibiotics alone.

Molecule	Status (resistant/sensitive) ([1]; Bactec system)	MIC50 (50% M. para. cells inhibited or killed) ([1]; Bactec system) [µg/mL]	MIC99.9 (99.9% M. para. cells inhibited or killed) ([1]; Bactec system) [µg/mL]	outcome in patients unresponsive to antibiotics [2]	Status (resistant/sensitive) [1]
CC[C@@H](CO)NCCN[C@@H](CC)CO [EMB, ethambutol]	S	<0.5	<3.0		
infliximab				induction of remission in all patients	
NC(=O)c1cnccn1 [PZA, pyrazinamide]	R	>20	>20		
CC[C@H]1OC(=O)[C@H](C)[C@@H](O[C@H]2C[C@@](C)(OC)[C@@H](O)[C@H](C)O2)[C@H](C)[C@@H](O[C@@H]2O[C@H](C)C[C@H](N(C)C)[C@H]2O)[C@](C)(OC)C[C@@H](C)C(=O)[C@H](C)[C@@H](O)[C@]1(C)O [CLR, clarithromycin]		<0.25	<1.25		S
NNC(=O)c1ccncc1 [INH, isoniazid]	R	>20	>20		
NC[C@H]1O[C@H](O[C@H]2[C@H](O)[C@@H](O[C@H]3O[C@H](CO)[C@@H](O)[C@H](N)[C@H]3O)[C@H](N)C[C@@H]2N)[C@H](O)[C@@H](O)[C@@H]1O [KM, kanamycin]	R	<1.3	<3.0		
CO[C@H]1/C=C/O[C@@]2(C)Oc3c(C)c(O)c4c(O)c(c(/C=N/N5CCN(C)CC5)c(O)c4c3C2=O)NC(=O)/C(C)=C\C=C\[C@H](C)[C@H](O)[C@@H](C)[C@@H](O)[C@@H](C)[C@H](OC(C)=O)[C@@H]1C [RIF, Rifampicin]	R	>1.0	>2.6		
[H]/N=C(/N)N[C@H]1[C@H](O)[C@@H](O)[C@H](O[C@@H]2O[C@@H](C)[C@](O)(C=O)[C@H]2O[C@@H]2O[C@@H](CO)[C@H](O)[C@@H](O)[C@@H]2NC)[C@@H](N/C(N)=N\[H])[C@@H]1O [ST, streptomycin]	R	>0.4	>3.0		

Source: patent US20020192201A1, “Crohn's disease treatment methods” (priority 1998, published 2002)
